Experimental findings from PMC4111509 (PLoS ONE, 2014) are described below.

Holding throughout (test): HPLC-UV product detection
Assay type in all cases: biochemical
Details in all cases: AdoMet co-substrate

Assay [1] addresses T1, NpN4OMT2 (Narcissus aff. pseudonarcissus MK-2014, UniProt A0A077EW86).
T1 construct: gene N4OMT2; full length, N-terminal His tag (pET28a), E. coli, purified

Assay [2] concerns the target T2, NpN4OMT4 (Narcissus aff. pseudonarcissus MK-2014, UniProt A0A077ES70).
T2 construct: gene N4OMT4; full length, N-terminal His tag (pET28a), E. coli, purified

In assay [3] the target is T3, NpN4OMT5 (Narcissus aff. pseudonarcissus MK-2014, UniProt A0A077ESS0).
T3 construct: gene N4OMT5; full length, N-terminal His tag (pET28a), E. coli, purified
T3 sequence (A0A077ESS0 whole entry): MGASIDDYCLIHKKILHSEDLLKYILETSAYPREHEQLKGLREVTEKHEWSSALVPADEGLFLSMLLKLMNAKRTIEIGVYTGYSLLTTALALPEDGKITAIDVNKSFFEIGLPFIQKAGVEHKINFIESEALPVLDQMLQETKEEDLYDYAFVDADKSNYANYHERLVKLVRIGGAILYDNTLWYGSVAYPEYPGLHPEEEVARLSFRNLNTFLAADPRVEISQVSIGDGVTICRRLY

T1 sequence (A0A077EW86 whole entry): as the sequence (A0A077ESS0 whole entry) above, with C9S, I11V, K14N counted along it
T2 sequence (A0A077ES70 whole entry): as the sequence (A0A077ESS0 whole entry) above, with L67I counted along it

For `Oc1ccc(CCNCc2ccc(O)c(O)c2)cc1` [norbelladine], the HPLC-UV product detection result in assay [1], in assay [2] and in assay [3] was “enzymatic activity was confirmed for all variants using norbelladine as the substrate” throughout.
